US7960408B2, “Quinolinyl and benzothiazolyl modulators” (Amgen Inc., priority 2000, dated 2011)

The compounds below were run against T1, PPARγ (Homo sapiens, UniProt P37231) (assay: PPARγ ligand binding assay utilizing [3H]-BRL 49653 as the radioligand). Details: concentration required to reduce by 50% the specific binding of [3H]-BRL 49653.
T1 construct: made in house
T1 sequence (P37231 1-505): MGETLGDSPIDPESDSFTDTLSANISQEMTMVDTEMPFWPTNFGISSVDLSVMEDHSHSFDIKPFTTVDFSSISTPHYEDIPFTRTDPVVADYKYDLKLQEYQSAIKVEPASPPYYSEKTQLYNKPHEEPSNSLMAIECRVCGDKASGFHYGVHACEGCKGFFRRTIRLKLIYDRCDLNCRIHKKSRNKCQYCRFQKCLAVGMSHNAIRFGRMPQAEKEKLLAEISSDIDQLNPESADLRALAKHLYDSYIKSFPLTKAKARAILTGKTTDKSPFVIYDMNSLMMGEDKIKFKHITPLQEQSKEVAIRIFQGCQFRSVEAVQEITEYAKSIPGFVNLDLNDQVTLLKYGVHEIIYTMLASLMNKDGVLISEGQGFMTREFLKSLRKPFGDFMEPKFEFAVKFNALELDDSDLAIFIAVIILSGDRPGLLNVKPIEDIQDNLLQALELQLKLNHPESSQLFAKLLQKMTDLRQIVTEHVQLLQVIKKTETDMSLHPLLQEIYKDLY
Text: The compounds of the present invention can be evaluated for modulation of the PPARγ receptor using assays such as those described in Jiang, et al., Nature 391:82-86 (1998), Ricote, et al., Nature 391:79-82 (1998) and Lehmann, et al., J. Biol. Chem. 270(12): 12953-12956 (1995). Alternatively, the compounds can be evaluated for their ability to displace radiolabeled BRL 49653 from a PPARγ-GST fusion protein as follows:
PPARγ-GST fusion protein (prepared according to standard procedures), [^3H]—BRL 49653 having 50 Ci/mmol specific activity, Polyfiltronics Unifilter 350 filtration plate and glutathione-Sepharose® beads (from Pharmacia: washed twice with 10× binding buffer in which BSA and DTI can be left out).
Binding buffer (10 mM Tris-HCl, pH 8.0, 50 mM KCI, 10 mM DTT, 0.02% BSA and 0.01% NP-40) is added in 80-μL amounts to the wells of the filtration plate. The test compound is then added in 10 μL of DMSO. The PPARγ-GST fusion protein and radiolabeled BRL compound are premixed in binding buffer containing 10 mM DTT and added in 10-μL amounts to the wells of the plate to provide final concentrations of 1 μg/well of PPARγ-GST fusion protein and 10 nM [^3H]—BRL 49653 compound. The plate is incubated for 15 min. Glutathione-agarose bead is added in 50 μL of binding buffer, and the plate is vigorously shaken for one hour. The plate is washed four times with 200 μL/well of binding buffer (without BSA and DTT). The bottom of the plate is sealed and 200 μL/well of scintillation cocktail is added. The top of the plate is then sealed and the radioactivity is determined.
IC50 values are defined as the concentration of test compounds required to reduce by 50% the specific binding of [^3H]—BRL 49653 and are represented by (+) <30 μM; (++) <10 μM; (+++) <1 μM.

Compound	IC50 [nM]
O=S(=O)(Nc1cc(Cl)c([S+]([O-])c2cnc3ccccc3c2)c(Cl)c1)c1ccc(Cl)cc1Cl (stereo not drawn) [Compound 5.2]	< 1000
Cc1cc(S(=O)(=O)Nc2cc(Oc3nc4cc(Cl)ccc4s3)cc(Oc3nc4cc(Cl)ccc4s3)c2)c(Cl)cc1Cl [Compound 324, N-[3,5-Bis-(5-chloro-benzothiazol-2-yloxy)-phenyl]-2,4-dichloro-5-methyl-benzenesulfonamide]	< 1000
O=S(=O)(Nc1cc(Cl)cc(Oc2nc3cc(Cl)ccc3s2)c1)c1ccc(Cl)cc1Cl [Compound 284, 2,4-Dichloro-N-[3-chloro-5-(5-chloro-benzothiazol-2-yloxy)-phenyl]-benzenesulfonamide]	< 1000
COc1cccc2sc(Oc3c(Cl)cc(NS(=O)(=O)c4cc(C)c(Cl)cc4Cl)cc3Cl)nc12 [Compound 429, 2,4-Dichloro-N-[3,5-dichloro-4-(4-methoxy-benzothiazol-2-yloxy)-phenyl]-5-methyl-benzenesulfonamide]	< 1000
O=S(=O)(Nc1cc(Cl)cc(Oc2nc3ccc(F)cc3s2)c1)c1ccc(Cl)cc1Cl [Compound 305, 2,4-Dichloro-N-[3-chloro-5-(6-fluoro-benzothiazol-2-yloxy)-phenyl]-benzenesulfonamide]	< 1000
Cc1ccc2nc(Oc3cc(Cl)cc(NS(=O)(=O)c4ccc(Cl)cc4Cl)c3)sc2c1 [Compound 300, 2,4-Dichloro-N-[3-chloro-5-(6-methyl-benzothiazol-2-yloxy)-phenyl]-benzenesulfonamide]	< 1000
O=S(=O)(Nc1cc(Cl)c(Oc2nc3c(Cl)cccc3s2)c(Cl)c1)c1ccc(C(F)(F)F)cc1Cl [Compound 424, 2-Chloro-N-[3,5-dichloro-4-(4-chloro-benzothiazol-2-yloxy)-phenyl]-4-trifluoromethyl-benzenesulfonamide]	1000 to 10000
2,4-Dichloro-N-[3,5-dichloro-4-(6-methyl-quinoln-3-yloxy)-phenyl]-5-methyl-benzenesulfonamide [Compound 49]	< 1000
COc1cccc2sc(Oc3cc(Cl)cc(NS(=O)(=O)c4ccc(C(F)(F)F)cc4Cl)c3)nc12 [Compound 296, 2-Chloro-N-[3-chloro-5-(4-methoxy-benzothiazol-2-yloxy)-phenyl]-4-trifluoromethyl-benzenesulfonamide]	1000 to 10000
Cc1cc(S(=O)(=O)Nc2cc(Cl)cc(Oc3nc4cc(C#N)ccc4s3)c2)c(Cl)cc1Cl [Compound 288, 2,4-Dichloro-N-[3-chloro-5-(5-cyano-benzothiazol-2-yloxy)-phenyl]-5-methyl-benzenesulfonamide]	< 1000
Cc1cc(S(=O)(=O)Nc2cc(Cl)c(Oc3nc4c(Cl)cccc4s3)c(Cl)c2)c(Cl)cc1Cl [Compound 426, 2,4-Dichloro-N-[3,5-dichloro-4-(4-chloro-benzothiazol-2-yloxy)-phenyl]-5-methyl-benzenesulfonamide]	< 1000
O=S(=O)(Nc1cc(Cl)c(Oc2nc3ccc(Cl)cc3s2)c(Cl)c1)c1ccc(OC(F)(F)F)cc1 [Compound 434, N-[3,5-Dichloro-4-(6-chloro-benzothiazol-2-yloxy)-phenyl]-4-trifluoromethoxy-benzenesulfonamide]	1000 to 10000
O=S(=O)(Nc1cc(Cl)c(Sc2cnc3ccccc3c2)c(Cl)c1)c1ccc(C(F)(F)F)cc1Cl [Compound 4.3]	< 1000
Cc1cc(S(=O)(=O)Nc2cc(Cl)c(Cc3ccc4ccccc4n3)c(Cl)c2)c(Cl)cc1Cl [Compound 226, 2,4-Dichloro-N-(3,5-dichloro-4-quinolin-2-ylmethyl-phenyl)-5-methyl-benzenesulfonamide]	< 1000
O=S(=O)(Nc1cc(Cl)c(Oc2nc3c(Cl)cccc3s2)c(Cl)c1)c1ccc(Cl)cc1Cl [Compound 425, 2,4-Dichloro-N-[3,5-dichloro-4-(4-chloro-benzothiazol-2-yloxy)-phenyl]-benzenesulfonamide]	1000 to 10000

The next lines start with the values.

IC50 [nM]	Compound
10000 to 30000	O=S(=O)(Nc1ccc(Oc2nc3c(Cl)cccc3s2)c(Cl)c1)c1ccc(C(F)(F)F)cc1Cl [Compound 503, 2-Chloro-N-[3-chloro-4-(4-chloro-benzothiazol-2-oxy)-phenyl]-4-trifluoromethylbenzenesulfonamide]
< 1000	O=[N+]([O-])c1cc(C(F)(F)F)ccc1S(=O)(=O)Nc1cc(Cl)c(Oc2nc3ccc(Cl)cc3s2)c(Cl)c1 [Compound 435, N-[3,5-Dichloro-4-(6-chloro-benzothiazol-2-yloxy)-phenyl]-2-nitro-4-trifluoromethyl-benzenesulfonamide]
< 1000	Cc1cc(S(=O)(=O)Nc2cc(Cl)cc(Cc3nc4cc(Cl)ccc4s3)c2)c(Cl)cc1Cl [Compound 333, 2,4-Dichloro-N-[3-chloro-5-(5-chloro-benzothiazol-2-ylmethyl)-phenyl]-5-methyl-benzenesulfonamide]
< 1000	CS(=O)(=O)Nc1ccc2nc(Oc3ccc(NS(=O)(=O)c4ccc(C(F)(F)F)cc4Cl)cc3Cl)sc2c1 [Compound 444, 2-Chloro-N-[3-chloro-4-(6-methanesulfonylamino-benzothiazol-2-yloxy)-phenyl]-4-trifluoromethyl-benzenesulfonamide]
10000 to 30000	Cc1cccc2sc(Oc3cc(Cl)cc(NS(=O)(=O)c4ccc(Cl)cc4Cl)c3)nc12 [Compound 294, 2,4-Dichloro-N-[3-chloro-5-(4-methyl-benzothiazol-2-yloxy)-phenyl]-benzenesulfonamide]
10000 to 30000	O=S(=O)(Nc1cc(Cl)cc(Oc2nc3c(Cl)cccc3s2)c1)c1ccc(C(F)(F)F)cc1Cl [Compound 290, 2-Chloro-N-[3-chloro-5-(4-chloro-benzothiazol-2-yloxy)-phenyl]-4-trifluoromethyl-benzenesulfonamide]
< 1000	O=S(=O)(Nc1cc(Cl)cc(Cc2nc3cc(Cl)ccc3s2)c1)c1ccc(Cl)cc1Cl [Compound 332, 2,4-Dichloro-N-[3-chloro-5-(5-chloro-benzothiazol-2-ylmethyl)-phenyl]-benzenesulfonamide]
1000 to 10000	Cc1cc(S(=O)(=O)Nc2cc(Cl)cc(Oc3nc4c(Cl)cccc4s3)c2)c(Cl)cc1Cl [Compound 292, 2,4-Dichloro-N-[3-chloro-5-(4-chloro-benzothiazol-2-yloxy)-phenyl]-5-methyl-benzenesulfonamide]
< 1000	CS(=O)(=O)c1ccc2nc(Oc3c(Cl)cc(NS(=O)(=O)c4ccc(C(F)(F)F)cc4Cl)cc3Cl)sc2c1 [Compound 441, 2-Chloro-N-[3,5-dichloro-4-(6-methanesulfonyl-benzothiazol-2-yloxy)-phenyl]-4-trifluoromethyl-benzenesulfonamide]
< 1000	CS(=O)(=O)c1ccc2sc(Oc3c(Cl)cc(NS(=O)(=O)c4ccc(C(F)(F)F)cc4Cl)cc3Cl)nc2c1 [Compound 458, 2-Chloro-N-[3,5-dichloro-4-(5-methanesulfonyl-benzothiazol-2-yloxy)-phenyl]-4-trifluoromethyl-benzenesulfonamide]
< 1000	O=S(=O)(Nc1cc(Cl)c(Cc2cc3ccccc3cn2)c(Cl)c1)c1ccc(Cl)cc1Cl [Compound 238, 2,4-Dichloro-N-(3,5-dichloro-4-isoquinolin-3-ylmethyl-phenyl)-benzenesulfonamide]
< 1000	CS(=O)(=O)Nc1ccc2sc(Oc3c(Cl)cc(NS(=O)(=O)c4ccc(C(F)(F)F)cc4Cl)cc3Cl)nc2c1 [Compound 457, 2-Chloro-N-[3,5-dichloro-4-(5-methanesulfonylamino-benzothiazol-2-yloxy)-phenyl]-4-trifluoromethyl-benzenesulfonamide]
1000 to 10000	O=[N+]([O-])c1ccc2sc(Oc3c(Cl)cc(NS(=O)(=O)c4ccc(C(F)(F)F)cc4Cl)cc3Cl)nc2c1 [Compound 455, 2-Chloro-N-[3,5-dichloro-4-(5-nitro-benzothiazol-2-yloxy)phenyl]-4-trifluoromethyl-benzenesulfonamide]
< 1000	O=S(=O)(Nc1cc(Cl)c(Sc2cnc3ccccc3c2)c(Cl)c1)c1ccccc1 [Compound 4.2]
< 1000	O=S(=O)(Nc1cc(Cl)c(Sc2cnc3ccccc3c2)c(Cl)c1)c1ccc(Cl)cc1Cl [Compound 4.1]
